US10869851B1, “Targeting NUR77 for mitigating perinatal neuroinflammation” (The United States Government as represented by the …, priority 2017, dated 2020)

What was measured:
Nur77 expression = test: Intrauterine LPS preterm labor/neuroinflammation model, Nur77 expression in fetal brain (microarray, qRT-PCR); design: species or system CD1 mice; settings: mouse, in vivo
Protocol: (§1) Mice were randomly assigned to six groups: Group 1) 4 pups/PBS+normal saline (NS), Group 2) 4 pups/LPS+NS, Group 3) 4 pups/LPS+MgSO4, Group 4) 4 pups/LPS+BMZ, Group 5) 4 pups/LPS+MgSO4 and BMZ, and Group 6) 4 pups/LPS+TMPA. Except for the non-surgical control (Group 1), each group underwent intrauterine injection of either vehicle or LPS. Phosphate buffered saline (PBS) and normal saline (NS) were used for the control groups. […] Mice received 300 μl of normal saline prior to surgery as a precaution against dehydration. All surgical procedures were performed under anesthesia with isoflurane within a sterile environment using PPE and sterile surgical tools to prevent infection. E15.5 pup brains were compared 6 hours post LPS within the six treatment groups as described in Table 1:
Mice randomized to Groups 3-5 received a single subcutaneous (SQ) injection of 0.1 mg of MgSO4 and/or BMZ 30 minutes after intrauterine injection of LPS, per the Hallak protocol: 270 mg/kg SQ loading dose followed by 27 mg/kg SQ every 20 minutes for a four-hour duration. Mice randomized to Group 6 received a single dose of 50 mg/kg TMPA (approximately 2 mg of TMPA in 80 μl dimethyl sulfoxide (DMSO)) 30 minutes post-operative, as described by Zhan et al..

Ikbkb = test: Intrauterine LPS neuroinflammation model, fetal brain qRT-PCR of Ikbkb; assay type: in vivo, CD1 mice
Protocol: as §1
(§2) Mice randomized to Groups 3-5 received a single subcutaneous (SQ) injection of 0.1 mg of MgSO4 and/or BMZ 30 minutes after intrauterine injection of LPS, per the Hallak protocol: 270 mg/kg SQ loading dose followed by 27 mg/kg SQ every 20 minutes for a four-hour duration. […]
(§3) A power analysis was conducted to determine the appropriate number of subjects. Using data, it was determined that a minimum number of pups per treatment group of […] was necessary to obtain statistical power at the 0.80 level.

cerebral palsy = settings: meta-analysis [9]; cited from earlier work
Nos2 = test: Intrauterine LPS neuroinflammation model, fetal brain qRT-PCR of Nos2; assay type: in vivo, CD1 mice
Protocol: as §1, §2, §3

Ccr2 = test: Intrauterine LPS neuroinflammation model, fetal brain qRT-PCR of Ccr2; assay type: in vivo, CD1 mice
Protocol: as §1, §2, §3

[1] = E15.5, 6 hours post LPS, LPS+treatment vs LPS

Structure (SMILES) | Nur77 expression (quantitative reverse-transcriptase PCR validation) (Nur77 expression) | Nur77 expression in fetal brain tissue (microarray) (Nur77 expression) | Ikbkb expression in embryonic brain (Ikbkb; mouse, in vivo) | women in preterm labor treated per single case of cerebral palsy prevented (cerebral palsy) | Nos2 expression in embryonic brain (Nos2; mouse, in vivo) | Ccr2 expression in embryonic brain (Ccr2; mouse, in vivo) | Ikbkb expression in embryonic brain (Ikbkb; [1]) | Nos2 expression in embryonic brain (Nos2; [1]) | Ccr2 expression in embryonic brain (Ccr2; [1])
O=S(=O)([O-])[O-].[Mg+2] [MgSO4, magnesium sulfate] | reduced | significantly reduced | significantly lower | 46 | only significantly lower for Ikbkb | only significantly lower for Ikbkb | – | – | –
CCCCCCCC(=O)c1cc(OC)c(OC)c(OC)c1CC(=O)OCC [TMPA, ethyl 2-(2,3,4-trimethoxy-6-octanoylphenyl)acetate] | – | – | – | – | – | – | significantly lower vs. LPS | significantly lower vs. LPS | significantly lower vs. LPS
